Assay results as given in patent US7473790B2 (Pfizer Inc., priority 2003, dated 2009).

Each molecule was assayed against T1, HCV polymerase (Hepatitis C virus genotype 1b, UniProt P26663) (assay: HCV polymerase primer/template-directed transcription assay (32P-GTP incorporation, filter binding)). Settings: compound concentration not given.
T1 construct: 2.5 pmoles (0.15 μg) HCV polymerase protein in a final volume of 75 μL
Type: biochemical
Experimental: The compounds described herein were tested for activity with HCV polymerase. Recombinant HCV polymerase was tested for its ability to perform primer/template-directed transcription in assays that contained 30 mM tris-HCl pH 7.2, 10 mM MgCl2, 20 mM NaCl, 1 mM Dithiothreitol (DTT), 0.05% Tween-20, 1% glycerol, 5 pmoles biotin-dG12 (primer), 0.5 pmoles poly(rC)300 (template), 1 μM GTP, 0.1-0.3 uCi α-^32P-GTP, and 2.5 pmoles (0.15 μg) HCV polymerase protein in a final volume of 75 μL. Reactions were initiated by addition of enzyme and incubated 30 minutes at 30° C. Reactions were stopped by addition of 33 mM EDTA, and polynucleotide products were collected by filtration through Diethylaminoethyl (DE) Filtermat papers (Wallac). Unincorporated triphosphate was removed by washing the filters with 5% dibasic sodium phosphate. The filters were counted in a Packard Tri-Lux Microbeta scintillation counter (Packard Bioscience, Meriden, Conn.). Compounds to be tested were added at various concentrations, e.g., 1 μm to 50 μm, from stocks in 10% DMSO-water (final DMSO is 1% in reaction).
IC50 values were estimated from the primary cpm data (collected in triplicate) using the formula: cpm (I)=cpm(no inhibitor)(1−([I]/([I]+IC50))). An IC50 value represents the concentration (in μM) of a compound that provides 50% inhibition of polymerase-directed transcription in the above assay. A percent inhibition value is expressed for a compound where it was impractical to calculate an IC50 value with available data. If the IC50 estimated by the above equation was less than 200 nM, it was recalculated using the following equation, which takes into account the enzyme concentration (30 nM) in the assay: cpm(I)=cpm(no inhibitor)(1−((((I+IC50+30e−9)−sqrt(((I+IC50+30e−9)^2)−4×30e−9×I)))/((2)(30e−9))). Curve fitting was performed using the program KaleidaGraph (Synergy Software, Reading, Pa.).

T1 sequence (P26663 2420-3010): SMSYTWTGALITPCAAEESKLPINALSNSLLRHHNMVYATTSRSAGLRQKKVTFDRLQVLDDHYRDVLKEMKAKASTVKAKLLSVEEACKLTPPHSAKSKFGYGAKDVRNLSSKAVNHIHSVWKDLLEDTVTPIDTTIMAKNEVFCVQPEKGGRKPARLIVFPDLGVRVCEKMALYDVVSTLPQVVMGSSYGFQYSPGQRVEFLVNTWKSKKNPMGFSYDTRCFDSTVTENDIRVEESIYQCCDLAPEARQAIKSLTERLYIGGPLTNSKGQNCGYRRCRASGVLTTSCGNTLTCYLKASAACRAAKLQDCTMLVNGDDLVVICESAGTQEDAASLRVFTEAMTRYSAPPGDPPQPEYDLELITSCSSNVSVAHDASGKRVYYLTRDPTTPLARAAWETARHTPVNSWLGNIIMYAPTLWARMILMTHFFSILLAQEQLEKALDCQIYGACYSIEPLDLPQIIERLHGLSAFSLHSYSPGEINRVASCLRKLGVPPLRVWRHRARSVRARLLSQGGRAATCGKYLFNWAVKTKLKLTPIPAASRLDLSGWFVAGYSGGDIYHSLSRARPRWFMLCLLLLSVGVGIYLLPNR

| SMILES | percent inhibition [%] |
| --- | --- |
| Cc1cc(C)n2nc(CC3=C(O)CC(CCc4ccc(O)c(C(C)C)c4)(C4CCCC4)OC3=O)nc2n1 (centres unmarked) [B(94), 6-Cyclopentyl-3-(5,7-dimethyl-[1,2,4]triazolo[1,5-a]pyrimidin-2-ylmethyl)-4-hydroxy-6-[2-(4-hydroxy-3-isopropyl-phenyl)-ethyl]-5,6-dihydro-pyran-2-one] | 1 |

Same assay, conditions: recombinant HCV polymerase; 30 minutes at 30° C.; concentration giving 50% inhibition of polymerase-directed transcription; read-out: IC50

| SMILES | IC50 [µM] |
| --- | --- |
| COc1cc(OC)c(CCC2(C3CCCC3)CC(O)=C(Cc3nc4cc(OC)c(OC)cc4c(=O)[nH]3)C(=O)O2)cc1Cl (centres unmarked) [B(63), 2-({6-[2-(5-Chloro-2,4-dimethoxyphenyl)ethyl]-6-cyclopentyl-4-hydroxy-2-oxo-5,6-dihydro-2H-pyran-3-yl}methyl)-6,7-dimethoxyquinazolin-4(3H)-one] | 0.016 |
| Cc1cc(C)n2nc(CC3=C(O)CC(CCc4ccc([C@@H](C)O)cc4)(C4CCCC4)OC3=O)nc2n1 (some centres unmarked) [B(112), 6-Cyclopentyl-3-(5,7-dimethyl-[1,2,4]triazolo[1,5-a]pyrimidin-2-ylmethyl)-4-hydroxy-6-{2-[4-(1-hydroxy-ethyl)-phenyl]-ethyl}-5,6-dihydro-pyran-2-one] | 0.097 |
| COc1ccc(CCC2(C3CCCC3)CC(O)=C(Sc3nnc(-c4ccco4)n3C)C(=O)O2)cc1Cl (centres unmarked) [C(42), 6-[2-(3-chloro-4-methoxyphenyl)ethyl]-6-cyclopentyl-3-{[5-(2-furyl)-4-methyl-4H-1,2,4-triazol-3-yl]thio}-4-hydroxy-5,6-dihydro-2H-pyran-2-one] | 0.013 |
| COc1ccc(CCC2(C3CCCC3)CC(O)=C(Cc3nc4ccsc4c(=O)[nH]3)C(=O)O2)cc1Cl (centres unmarked) [B(56), 2-({6-[2-(3-Chloro-4-methoxyphenyl)ethyl]-6-cyclopentyl-4-hydroxy-2-oxo-5,6-dihydro-2H-pyran-3-yl}methyl)thieno[3,2-d]pyrimidin-4(3H)-one] | 0.1 |
| CCC(C#N)(CC)c1c(F)cc(CCC2(C3CCCC3)CC(O)=C(Cc3nc4ncc(C)cn4n3)C(=O)O2)cc1F (racemic) [A(262), 2-(4-{2-[2-Cyclopentyl-4-hydroxy-5-(6-methyl-[1,2,4]triazolo[1,5-a]pyrimidin-2-ylmethyl)-6-oxo-3,6-dihydro-2H-pyran-2-yl]-ethyl}-2,6-difluoro-phenyl)-2-ethyl-butyronitrile] | 0.006 |
| CC1(C)COc2ccc(CCC3(C4CCCC4)CC(=O)CC(=O)O3)cc21 (centres unmarked) [A(76), 6-Cyclopentyl-6-[2-(3,3-dimethyl-2,3-dihydro-benzofuran-5-yl)-ethyl]-dihydro-pyran-2,4-dione] | 5.8 |
| CN(c1ccc(CCC2(C3CCCC3)CC(=O)CC(=O)O2)cc1)S(C)(=O)=O (centres unmarked) [A(88), N-{4-[2-(2-cyclopentyl-4,6-dioxotetrahydro-2H-pyran-2-yl)ethyl]phenyl}-N-methylmethanesulfonamide] | 2.3 |
| COc1ccc(CCC2(C3CCCC3)CC(O)=C(Sc3nnc(-c4ccncc4)o3)C(=O)O2)cc1Cl (centres unmarked) [C(51), 6-[2-(3-chloro-4-methoxyphenyl)ethyl]-6-cyclopentyl-4-hydroxy-3-[(5-pyridin-4-yl-1,3,4-oxadiazol-2-yl)thio]-5,6-dihydro-2H-pyran-2-one] | 0.256 |
| COc1cc(OC)c(CCC2(C3CCCC3)CC(O)=C(Sc3nccnc3C)C(=O)O2)cc1Cl (centres unmarked) [C(78), 6-[2-(5-chloro-2,4-dimethoxyphenyl)ethyl]-6-cyclopentyl-4-hydroxy-3[(3-methylpyrazin-2-yl)thio]-5,6-dihydro-2H-pyran-2-one] | 0.047 |
| Cc1nc(CC2=C(O)CC(CCc3ccc(C(F)F)c(F)c3)(C3CCCC3)OC2=O)n(C)n1 (centres unmarked) [B(69), 6-Cyclopentyl-6-{2-[4-(difluoromethyl)-3-fluorophenyl]ethyl}-3-[(1,3-dimethyl-1H-1,2,4-triazol-5-yl)methyl]-4-hydroxy-5,6-dihydro-2H-pyran-2-one] | 0.8 |
| COC(=O)C1(c2cccc(CCC3(C4CCCC4)CC(=O)CC(=O)O3)c2)CC1 (centres unmarked) [A(69), 1-{3-[2-(2-Cyclopentyl-4,6-dioxo-tetrahydro-pyran-2-yl)-ethyl]-phenyl}-cyclopropanecarboxylic acid methyl ester] | 9.9 |
| CC(C)(C#N)c1ccc(CCC2(C3CCCC3)CC(=O)CC(=O)O2)cc1Cl (centres unmarked) [A(147), 2-{2-Chloro-4-[2-(2-cyclopentyl-4,6-dioxo-tetrahydro-pyran-2-yl)-ethyl]-phenyl}-2-methyl-propionitrile] | 1.4 |
| O=C1CC(=O)OC(CCC#Cc2ccc(F)cc2)(C2CCCC2)C1 (centres unmarked) [F(5), 6-Cyclopentyl-6-[4-(4-fluoro-phenyl)-but-3-ynyl]-dihydro-pyran-2,4-dione] | 25 |
| CCC(C#N)(CC)c1ccc(CCC2(C3CCCC3)CC(O)=C(Cc3nc4ncc(Cl)cn4n3)C(=O)O2)cc1F (single isomer, unassigned; (+)) [A(266), (+)-2-(4-{2-[5-(6-Chloro-[1,2,4]triazolo[1,5-a]pyrimidin-2-ylmethyl)-2-cyclopentyl-4-hydroxy-6-oxo-3,6-dihydro-2H-pyran-2-yl]-ethyl}-2-fluoro-phenyl)-2-ethyl-butyronitrile] | 0.019 |
| CC(C)Oc1ccc(CCC2(C3CCCC3)CC(O)=C(Sc3cccc4cccnc34)C(=O)O2)cc1F (centres unmarked) [C(01), 6-Cyclopentyl-6-[2-(3-fluoro-4-isopropoxy-phenyl)-ethyl]-4-hydroxy-3-(quinolin-8-ylsulfanyl)-5,6-dihydro-pyran-2-one] | 0.337 |
| Cc1cnc2nc(CC3=C(O)CC(CCc4cc(F)c(C5(C#N)CC5)c(F)c4)(C4CCCC4)OC3=O)nn2c1 (centres unmarked) [A(254)] | 0.012 |
| COc1ccc(CCC2(C3CCCC3)CC(O)=C(Cc3nc4nc(C)cc(C)n4n3)C(=O)O2)cc1C1CC1 (centres unmarked) [B(107), 6-Cyclopentyl-6-[2-(3-cyclopropyl-4-methoxy-phenyl)-ethyl]-3-(5,7-dimethyl-[1,2,4]triazolo[1,5-a]pyrimidin-2-ylmethyl)-4-hydroxy-5,6-dihydro-pyran-2-one] | 0.006 |
| COc1ccc(CCC2(C3CCCC3)CC(O)=C(Sc3nnnn3C)C(=O)O2)cc1Cl (centres unmarked) [C(38), 6-[2-(3-chloro-4-methoxyphenyl)ethyl]-6-cyclopentyl-4-hydroxy-3-[(1-methyl-1H-tetrazol-5-yl)thio]-5,6-dihydro-2H-pyran-2-one] | 0.28 |
| CCc1ccc(O)c(CCC2(C3CCCC3)CC(O)=C(Cc3nc4nc(C)cc(C)n4n3)C(=O)O2)c1 (centres unmarked) [A(166), 6-Cyclopentyl-3-(5,7-dimethyl-[1,2,4]triazolo[1,5-a]pyrimidin-2-ylmethyl)-6-[2-(5-ethyl-2-hydroxy-phenyl)-ethyl]-4-hydroxy-5,6-dihydro-pyran-2-one] | 0.001 |
| Cc1cc(C)n2nc(CC3=C(O)CC(CCc4ccc(C(C)(C)O)c(F)c4)(C4CCCC4)OC3=O)nc2n1 (single isomer, unassigned; enantiomer a) [A(218), 6-cyclopentyl-3-[(5,7-dimethyl[1,2,4]triazolo[1,5-a]pyrimidin-2-yl)methyl]-6-{2-[3-fluoro-4-(1-hydroxy-1-methylethyl)phenyl]ethyl}-4-hydroxy-5,6-dihydro-2H-pyran-2-one (enantiomer A)] | 0.061 |
| CCc1cc(CCC2(C3CCCC3)CC(O)=C(Cc3nc4nc(C)cc(C)n4n3)C(=O)O2)ccc1Cl (centres unmarked) [B(113), 6-[2-(4-Chloro-3-ethyl-phenyl)-ethyl]-6-cyclopentyl-3-(5,7-dimethyl-[1,2,4]triazolo[1,5-a]pyrimidin-2-ylmethyl)-4-hydroxy-5,6-dihydro-pyran-2-one] | 0.019 |
| CCc1cc(CCC2(C3CCCC3)CC(O)=C(Cc3nc4nc(C)cc(C)n4n3)C(=O)O2)cc(CC)c1O (centres unmarked) [A(232), 6-cyclopentyl-6-[2-(3,5-diethyl-4-hydroxyphenyl)ethyl]-3-[(5,7-dimethyl[1,2,4]triazolo[1,5-a]pyrimidin-2-yl)methyl]-4-hydroxy-5,6-dihydro-2H-pyran-2-one] | 0.004 |
| Cc1cc(C)n2nc(CC3=C(O)CC(CCc4ccc(OC(C)C)c(F)c4)(C4CCCC4)OC3=O)nc2n1 (single isomer, unassigned) [J(4), 6-cyclopentyl-3-[(5,7-dimethyl[1,2,4]triazolo[1,5-a]pyrimidin-2-yl)methyl]-6-[2-(3-fluoro-4-isopropoxyphenyl)ethyl]-4-hydroxy-5,6-dihydro-2H-pyran-2-one] | 0.019 |
| Cc1cc(C)n2nc(CC3=C(O)CC(CCc4ccc(OC(C)C)c(C)c4)(C4CCCC4)OC3=O)nc2n1 (centres unmarked) [B(11), 6-Cyclopentyl-3-(5,7-dimethyl-[1,2,4]triazolo[1,5]pyrimidin-2-ylmethyl)-4-hydroxy-6-[2-(4-isopropoxy-3-methyl-phenyl)-ethyl]-5,6-dihydro-pyran-2-one] | 0.019 |
| Cc1cc(C)n2nc(CC3=C(O)CC(CCc4ccc(C5(C#N)CC5)c(Cl)c4)(C4CCCC4)OC3=O)nc2n1 (centres unmarked) [A(148), 1-(2-Chloro-4-{2-[2-cyclopentyl-5-(5,7-dimethyl-[1,2,4]triazolo[1,5-a]pyrimidin-2-ylmethyl)-4-hydroxy-6-oxo-3,6-dihydro-2H-pyran-2-yl]-ethyl}-phenyl)-cyclopropanecarbonitrile] | 0.005 |
